Assay results reported in publication PMC11851430, “Workflow for E3 Ligase Ligand Validation for PROTAC Development” (ACS Chemical Biology, 2025).

Columns and labels:
[1] = molecular target: T1, EPHB3A (Homo sapiens, UniProt P54753); assay: DSF assay; assay type: binding; conditions: 20 µM compound
T1 construct: purchased in-house DSF panel (SGC-style construct names; the trailing A/B is a construct suffix)
T1 sequence (P54753 633-896): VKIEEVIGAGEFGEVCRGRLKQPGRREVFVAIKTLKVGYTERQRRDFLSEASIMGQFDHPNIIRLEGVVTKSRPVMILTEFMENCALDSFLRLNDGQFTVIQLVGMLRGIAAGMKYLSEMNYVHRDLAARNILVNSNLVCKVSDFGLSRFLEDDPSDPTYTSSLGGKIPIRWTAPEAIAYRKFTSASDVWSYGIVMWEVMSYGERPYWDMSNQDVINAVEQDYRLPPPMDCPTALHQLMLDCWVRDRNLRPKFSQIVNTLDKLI

[2] = molecular target: T2, PDK4A (Homo sapiens, UniProt Q16654); assay: DSF assay; assay type: binding; conditions: 20 µM compound
T2 construct: purchased in-house DSF panel (SGC-style construct names; the trailing A/B is a construct suffix)
T2 sequence (Q16654 whole entry): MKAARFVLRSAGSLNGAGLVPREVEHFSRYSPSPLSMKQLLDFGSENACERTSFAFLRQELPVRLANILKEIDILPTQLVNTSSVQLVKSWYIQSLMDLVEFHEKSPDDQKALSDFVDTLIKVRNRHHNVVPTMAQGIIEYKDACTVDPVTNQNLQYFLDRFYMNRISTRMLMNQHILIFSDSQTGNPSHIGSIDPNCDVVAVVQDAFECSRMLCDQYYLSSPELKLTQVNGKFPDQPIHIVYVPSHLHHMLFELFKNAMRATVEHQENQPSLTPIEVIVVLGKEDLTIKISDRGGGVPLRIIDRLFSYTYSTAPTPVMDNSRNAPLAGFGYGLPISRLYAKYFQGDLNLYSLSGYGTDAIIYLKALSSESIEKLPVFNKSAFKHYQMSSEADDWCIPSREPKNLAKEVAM

[3] = molecular target: T3, NEK1A (Homo sapiens, UniProt Q96PY6); assay: DSF assay; assay type: binding; conditions: 20 µM compound
T3 construct: purchased in-house DSF panel (SGC-style construct names; the trailing A/B is a construct suffix)
T3 sequence (Q96PY6 1-328): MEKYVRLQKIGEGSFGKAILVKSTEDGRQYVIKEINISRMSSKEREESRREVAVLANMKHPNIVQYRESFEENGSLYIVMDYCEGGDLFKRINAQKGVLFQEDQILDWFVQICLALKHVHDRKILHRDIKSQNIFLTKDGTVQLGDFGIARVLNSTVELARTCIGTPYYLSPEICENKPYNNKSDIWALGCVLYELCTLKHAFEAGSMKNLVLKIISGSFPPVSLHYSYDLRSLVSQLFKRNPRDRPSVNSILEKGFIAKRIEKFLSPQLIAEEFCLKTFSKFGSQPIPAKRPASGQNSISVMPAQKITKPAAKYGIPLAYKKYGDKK

[4] = molecular target: T4, CAMK1DA (Homo sapiens, UniProt Q8IU85); assay: DSF assay; assay type: binding; conditions: 20 µM compound
T4 construct: purchased in-house DSF panel (SGC-style construct names; the trailing A/B is a construct suffix)
T4 sequence (Q8IU85 whole entry): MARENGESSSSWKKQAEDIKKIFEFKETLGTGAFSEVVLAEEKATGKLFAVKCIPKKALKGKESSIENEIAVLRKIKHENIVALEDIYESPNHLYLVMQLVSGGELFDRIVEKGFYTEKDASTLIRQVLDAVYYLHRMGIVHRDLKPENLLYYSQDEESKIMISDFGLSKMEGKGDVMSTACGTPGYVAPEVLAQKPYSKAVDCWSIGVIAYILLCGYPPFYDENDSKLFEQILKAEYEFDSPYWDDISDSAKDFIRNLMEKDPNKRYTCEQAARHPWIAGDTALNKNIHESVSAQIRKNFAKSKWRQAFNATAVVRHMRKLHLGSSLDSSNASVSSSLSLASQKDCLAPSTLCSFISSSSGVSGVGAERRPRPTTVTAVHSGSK

[5] = molecular target: T5, FGFR2A (Homo sapiens, UniProt P21802); assay: DSF assay; assay type: binding; conditions: 20 µM compound
T5 construct: purchased in-house DSF panel (SGC-style construct names; the trailing A/B is a construct suffix)
T5 sequence (P21802 458-770): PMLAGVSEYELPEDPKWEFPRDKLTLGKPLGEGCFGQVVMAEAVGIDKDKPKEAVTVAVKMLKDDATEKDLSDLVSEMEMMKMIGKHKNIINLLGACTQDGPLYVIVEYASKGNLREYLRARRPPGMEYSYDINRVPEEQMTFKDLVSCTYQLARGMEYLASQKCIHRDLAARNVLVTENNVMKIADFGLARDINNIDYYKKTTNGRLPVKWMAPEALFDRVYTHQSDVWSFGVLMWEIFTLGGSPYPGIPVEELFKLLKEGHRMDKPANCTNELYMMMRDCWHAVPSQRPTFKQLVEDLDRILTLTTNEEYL

[6] = molecular target: T6, STK39A (Homo sapiens, UniProt Q9UEW8); assay: DSF assay; assay type: binding; conditions: 20 µM compound
T6 construct: purchased in-house DSF panel (SGC-style construct names; the trailing A/B is a construct suffix)

[7] = molecular target: T7, GSK3BB (Homo sapiens, UniProt P49841); assay: DSF assay; assay type: binding; conditions: 20 µM compound
T7 construct: purchased in-house DSF panel (SGC-style construct names; the trailing A/B is a construct suffix)
T7 sequence (P49841 35-386): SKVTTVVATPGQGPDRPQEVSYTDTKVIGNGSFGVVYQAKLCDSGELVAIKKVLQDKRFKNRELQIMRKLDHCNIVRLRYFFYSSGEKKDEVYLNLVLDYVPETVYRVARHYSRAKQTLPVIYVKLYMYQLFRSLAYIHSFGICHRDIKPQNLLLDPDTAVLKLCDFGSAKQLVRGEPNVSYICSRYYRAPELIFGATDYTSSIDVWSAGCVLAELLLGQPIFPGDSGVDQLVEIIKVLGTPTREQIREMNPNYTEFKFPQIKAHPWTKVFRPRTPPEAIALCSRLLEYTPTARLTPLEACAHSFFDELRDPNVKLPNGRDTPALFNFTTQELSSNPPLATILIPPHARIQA

[8] = molecular target: T8, GAKA (Homo sapiens, UniProt O14976); assay: DSF assay; assay type: binding; conditions: 20 µM compound
T8 construct: purchased in-house DSF panel (SGC-style construct names; the trailing A/B is a construct suffix)
T8 sequence (O14976 14-351): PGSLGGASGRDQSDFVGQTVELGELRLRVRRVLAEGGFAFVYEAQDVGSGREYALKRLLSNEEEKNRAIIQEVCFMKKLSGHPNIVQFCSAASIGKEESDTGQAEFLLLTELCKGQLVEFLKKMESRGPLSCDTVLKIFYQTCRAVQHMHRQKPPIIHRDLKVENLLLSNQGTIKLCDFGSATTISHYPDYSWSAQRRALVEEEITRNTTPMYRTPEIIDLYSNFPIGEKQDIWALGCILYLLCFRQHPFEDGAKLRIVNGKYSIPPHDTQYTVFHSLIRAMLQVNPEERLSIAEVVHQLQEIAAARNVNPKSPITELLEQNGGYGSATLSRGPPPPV

[9] = molecular target: T9, CDK2A (Homo sapiens, UniProt P24941); assay: DSF assay; assay type: binding; conditions: 20 µM compound
T9 construct: purchased in-house DSF panel (SGC-style construct names; the trailing A/B is a construct suffix)

[10] = molecular target: T10, MST3A (Homo sapiens, UniProt Q9Y6E0); assay: DSF assay; assay type: binding; conditions: 20 µM compound
T10 construct: purchased in-house DSF panel (SGC-style construct names; the trailing A/B is a construct suffix)
T10 sequence (Q9Y6E0 4-301): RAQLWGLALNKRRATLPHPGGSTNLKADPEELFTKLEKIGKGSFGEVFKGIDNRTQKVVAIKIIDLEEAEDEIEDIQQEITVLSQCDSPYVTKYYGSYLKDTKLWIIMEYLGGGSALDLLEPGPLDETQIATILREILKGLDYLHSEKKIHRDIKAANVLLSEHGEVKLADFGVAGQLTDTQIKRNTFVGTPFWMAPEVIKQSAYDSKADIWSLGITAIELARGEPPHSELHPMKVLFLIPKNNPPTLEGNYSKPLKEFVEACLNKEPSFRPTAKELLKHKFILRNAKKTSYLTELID

[11] = molecular target: T11, PCTK1A (Homo sapiens, UniProt Q00536); assay: DSF assay; assay type: binding; conditions: 20 µM compound
T11 construct: purchased in-house DSF panel (SGC-style construct names; the trailing A/B is a construct suffix)
T11 sequence (Q00536 163-478): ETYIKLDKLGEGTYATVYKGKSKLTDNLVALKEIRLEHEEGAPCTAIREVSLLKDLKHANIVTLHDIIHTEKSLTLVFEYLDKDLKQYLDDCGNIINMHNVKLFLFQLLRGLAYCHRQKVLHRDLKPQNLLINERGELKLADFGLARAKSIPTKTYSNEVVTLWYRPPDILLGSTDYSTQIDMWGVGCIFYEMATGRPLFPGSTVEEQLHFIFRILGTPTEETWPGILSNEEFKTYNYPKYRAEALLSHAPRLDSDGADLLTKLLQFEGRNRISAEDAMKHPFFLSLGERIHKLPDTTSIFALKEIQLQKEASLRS

[12] = molecular target: T12, ITK (Homo sapiens, UniProt Q08881); assay: Western blot assay; assay type: cell-based; conditions: Jurkat cells, 6 h
T12 construct: endogenous in cells; host or cells: Jurkat
T12 sequence (Q08881 1-620): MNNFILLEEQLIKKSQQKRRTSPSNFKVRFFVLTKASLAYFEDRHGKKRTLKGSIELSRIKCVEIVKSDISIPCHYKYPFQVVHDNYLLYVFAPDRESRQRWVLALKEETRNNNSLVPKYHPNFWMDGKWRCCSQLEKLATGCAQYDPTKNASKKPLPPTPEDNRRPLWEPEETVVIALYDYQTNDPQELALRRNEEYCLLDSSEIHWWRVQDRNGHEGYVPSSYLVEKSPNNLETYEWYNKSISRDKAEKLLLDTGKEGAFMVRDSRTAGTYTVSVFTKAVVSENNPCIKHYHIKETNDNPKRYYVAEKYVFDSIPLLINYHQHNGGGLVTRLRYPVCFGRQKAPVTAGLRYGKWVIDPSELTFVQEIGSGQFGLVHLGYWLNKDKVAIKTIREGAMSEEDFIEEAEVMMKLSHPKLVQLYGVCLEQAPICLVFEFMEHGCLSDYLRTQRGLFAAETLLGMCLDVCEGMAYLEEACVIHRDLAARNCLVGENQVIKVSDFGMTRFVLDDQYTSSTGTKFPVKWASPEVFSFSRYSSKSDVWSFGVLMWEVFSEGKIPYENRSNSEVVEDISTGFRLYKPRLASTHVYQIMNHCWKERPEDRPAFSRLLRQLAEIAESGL
Method: Two mL of Jurkat cells were seeded into 6 well plates (Greiner) at a density of 5·10 5 cells/mL.
The following day, cells were treated with compounds at according concentrations or DMSO for 6 hours and then lysed with 6 M Urea at 4 °C for 20 minutes. The lysates were centrifuged for 15 minutes at 16000 g and the supernatant was collected to perform the Western-Blot.
Protein quantification was performed using nanodrop One. The SDS samples were prepared […]
The samples were separated by a BIS-TRIS polyacrylamide gel polyacrylamide gel, 100 V for 1:45) followed by transfer to PVDF membranes (Millipore) at 350 mA for 140 minutes. The membranes were blocked using 5%wt/vol BSA (in TBS-T, 20 mM Tris-HCl, pH 7.5, 150 mM NaCl and 0.1% (vol/vol) Tween 20) at room temperature for 1 hour.
The blots were incubated with respective primary antibodies at 1:1000 dilution (Cell Signaling technologies: Aurora A (D3E4Q), ITK (2F12) and GAPDH (D4C6R)) at 4 °C overnight. The blots were washed with TBS-T thrice and incubated with 1:5000 dilution of horseradish peroxidase (HRP)-labelled respective secondary antibodies (Cell Signaling technologies, Anti- […]
The blots were washed with TBS-T thrice and then incubated with chemiluminescent HRP substrate (Bio-Rad) for 2 minutes. The blots were imaged and the signals were detected using the Amersham ImageQuant 800 (Cytiva).
Cell culture. Human MV4-11 ([…]) and human Jurkat ([…]) cells were cultured in RPMI- […]
°C in 5% CO2. Both media were supplemented with 10% FBS and 1% penicillin/streptomycin. […]

SMILES	ΔTm at 20 µM [1]	ΔTm at 20 µM [2]	ΔTm at 20 µM [3]	ΔTm at 20 µM [4]	ΔTm at 20 µM [5]	ΔTm at 20 µM [6]	ΔTm at 20 µM [7]	ΔTm at 20 µM [8]	ΔTm at 20 µM [9]	ΔTm at 20 µM [10]	ΔTm at 20 µM [11]	ITK protein levels (Western blot) [12]
CC(C)(C)OC(=O)NCCOCCOCCOCCOCCC(=O)N1CCN(c2cc(Nc3cc(C4CC4)[nH]n3)nc(Nc3ccc(CC#N)cc3)n2)CC1 [4-L]	6.97 °C	1.49 °C	0.45 °C	2.24 °C	7.61 °C	6.22 °C	14.8 °C	5.92 °C	7.79 °C	8.31 °C	4.55 °C	
Cc1ncsc1-c1ccc(CNC(=O)[C@@H]2C[C@@H](O)CN2C(=O)[C@@H](NC(=O)CCOCCOCCOCCN2CCN(c3cc(Nc4cc(C5CC5)[nH]n4)nc(Nc4ccc(CC#N)cc4)n3)CC2)C(C)(C)C)cc1 [4-a]												dose-dependent degradation of ITK
Cc1ncsc1-c1ccc(CNC(=O)[C@@H]2C[C@H](O)CN2C(=O)[C@@H](NC(=O)CCOCCOCCOCCN2CCN(c3cc(Nc4cc(C5CC5)[nH]n4)nc(Nc4ccc(CC#N)cc4)n3)CC2)C(C)(C)C)cc1 [4-a^neg]												did not cause any degradation of ITK
CC(C)(C)OC(=O)NCCCOCCOCCOCCCNC(=O)c1cc(Nc2cc(C3CC3)[nH]n2)nc(Nc2ccc(CC#N)cc2)n1 [5-L]	2.47 °C	0.13 °C	0.017 °C	3.86 °C	3.37 °C	6.54 °C	14.2 °C	3.75 °C	7.86 °C	3.47 °C	4.53 °C	
Cc1ncsc1-c1ccc(CNC(=O)[C@@H]2C[C@@H](O)CN2C(=O)[C@@H](NC(=O)CCOCCOCCOCCOCCN2CCN(c3ccc(Nc4ncc(Cl)c(Nc5ccccc5C(N)=O)n4)cc3)CC2)C(C)(C)C)cc1 [6-b]												dose-dependent degradation of ITK
Cc1ncsc1-c1ccc(CNC(=O)[C@@H]2C[C@H](O)CN2C(=O)[C@@H](NC(=O)CCOCCOCCOCCOCCN2CCN(c3ccc(Nc4ncc(Cl)c(Nc5ccccc5C(N)=O)n4)cc3)CC2)C(C)(C)C)cc1 [6-b^neg]												did not cause any degradation of ITK
CCOC(=O)c1cc(Nc2cc(C3CC3)[nH]n2)nc(Nc2ccc(CC#N)cc2)n1 [compound 5]	4.23 °C	0.03 °C	0.62 °C	3.94 °C	6.36 °C	5.53 °C	14.4 °C	4.56 °C	12.5 °C	7.56 °C	5.96 °C	
